Data as given in the supplement of paper PMC7600603.

Columns and labels:
[1] = system: DLD1 NRF2-GOF; assay: TC50 cytotoxicity; higher = less toxic; settings: 72 h; CellTox Green cytotoxicity
Method in brief: (§1)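 Isogenic DLD1 colorectal cancer cells, either NRF2 wild-type or CRISPR gain-of-function, were grown in DMEM with 10% FBS. They were exposed in 384-well plates to library compounds at 5 concentrations spanning a 10,000-fold range. After 72 h, cytotoxicity was read by CellTox Green on a Pherastar FS reader and normalised to vehicle wells and 100-μM positive-control wells. TC50 and drug sensitivity score (a normalised area under the curve) came from logistic dose-response fits.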

[2] = system: DLD1 NRF2-WT; assay: TC50 cytotoxicity; higher = less toxic; settings: 72 h; CellTox Green cytotoxicity
Method in brief: as §1

[3] = system: DLD1 NRF2-GOF; assay: drug sensitivity score (DSS) cytotoxicity (DSS score); higher = more toxic; extreme values may be limits of the assay; settings: 72 h; CellTox Green cytotoxicity
Method in brief: as §1

[4] = system: DLD1 NRF2-WT; assay: as above; settings: 72 h; CellTox Green cytotoxicity
Method in brief: as §1

[5] = system: DLD1 NRF2-WT; settings: 72 h; CellTiter-Glo viability
Method in brief: (§2)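 DLD1 colorectal cancer cells, an isogenic pair either NRF2 wild-type or carrying a CRISPR gain-of-function, were cultured in DMEM with 10% FBS and treated in 384-well plates with library compounds at 5 concentrations across a 10,000-fold range. CellTiter-Glo viability was read on a Pherastar FS reader after 72 h and normalised to vehicle wells and 100-μM positive-control wells. Four-parameter logistic dose-response fits were applied. EC50 and drug sensitivity score, a normalised area under the curve, were taken from these fits.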

[6] = system: DLD1 NRF2-GOF; assay: drug sensitivity score (DSS) viability (DSS score); higher = more sensitive; extreme values may be limits of the assay; settings: 72 h; CellTiter-Glo viability
Method in brief: as §2

[7] = system: DLD1 NRF2-WT; assay: as above; settings: 72 h; CellTiter-Glo viability
Method in brief: as §2

Compound | EC50 viability [5] | TC50 cytotoxicity [1] | TC50 cytotoxicity [2] | drug sensitivity score [3] | drug sensitivity score [4] | drug sensitivity score [6] | drug sensitivity score [7]
C[C@]12C=CC(=O)C=C1CC[C@@H]1[C@@H]2[C@@H](O)C[C@@]2(C)[C@H]1CC[C@]2(O)C(=O)CO [Prednisolone] | – | > 10 µM | > 10 µM | 0 | 0 | 1 | –
COc1c(C)cnc(Cn2cnc3c(Cl)nc(N)nc32)c1C [BIIB021] | 0.149 µM | > 10 µM | > 10 µM | 0 | 0 | – | 20.6
CC[C@H](NC(=O)[C@H](C)NC)C(=O)N1C[C@@H](O)C[C@H]1Cc1c(-c2[nH]c3cc(F)ccc3c2C[C@@H]2C[C@H](O)CN2C(=O)[C@H](CC)NC(=O)[C@H](C)NC)[nH]c2cc(F)ccc12 [Birinapant] | > 1 µM | > 1 µM | > 1 µM | 0 | 0 | – | 0.1
Nc1cc(F)ccc1NC(=O)c1ccc(CNC(=O)/C=C/c2cccnc2)cc1 [Chidamide] | > 10 µM | > 10 µM | > 10 µM | 0 | 0 | – | 0.6
CNCc1ccc(-c2[nH]c3cc(F)cc4c3c2CCNC4=O)cc1 [Rucaparib] | – | > 10 µM | > 10 µM | 0 | 0 | 2.7 | 0.8

The next lines start with results.

EC50 viability [5] | Compound | TC50 cytotoxicity [1] | TC50 cytotoxicity [2] | drug sensitivity score [3] | drug sensitivity score [4] | drug sensitivity score [6] | drug sensitivity score [7]
> 5 µM | Nc1cc(COc2c(Cl)cc(C[C@H](N)C(=O)O)cc2Cl)c2oc(-c3ccccc3)nc2c1 [JPH203] | > 5 µM | > 5 µM | 0 | 0 | 5.3 | 4.2
0.102 µM | CCS(=O)(=O)Nc1ccc(Oc2ccc(F)cc2F)c(-c2cn(C)c(=O)c3[nH]ccc23)c1 [Mivebresib] | > 10 µM | > 10 µM | 0 | 0 | – | 14.7
7.67 µM | CCCCCCCCCCCCCCCCOP(=O)([O-])OCC[N+](C)(C)C [Miltefosine] | 10.4 µM | 7.4 µM | 9.7 | 11 | – | 13.1
0.251 µM | CCc1nc(C(N)=O)c(Nc2ccc(N3CCC(N4CCN(C)CC4)CC3)c(OC)c2)nc1NC1CCOCC1 [Gilteritinib] | > 1 µM | > 1 µM | 0 | 0 | 1.4 | 2.9
0.109 µM | Cn1cncc1[C@@](N)(c1ccc(Cl)cc1)c1ccc2c(c1)c(-c1cccc(Cl)c1)cc(=O)n2C [Tipifarnib] | > 10 µM | > 10 µM | 0 | 0 | 6.2 | 5.4
3.29 µM | Nc1ccccc1NC(=O)c1ccc(CNc2nccc(-c3cccnc3)n2)cc1 [Mocetinostat] | > 10 µM | > 10 µM | 0 | 1.6 | – | 4
